From PubChem BioAssay AID248 (DTP/NCI, 2004)
“And” between values parts separate entries of the source, which are not always exact repeats. Equal values may be shown once. Inconclusive results and toxic doses are left out. Rule as the data show it: active = T/C of 150% or more; inactive = T/C below 125%.

Test system: L1210 leukemia ip in BDF1 mice, survival T/C
Test: NCI In Vivo Anticancer Drug Screen. Data for tumor model L1210 Leukemia (intraperitoneal) in B6D2F1 (BDF1) mice
Details: higher = longer survival
Summary of the method: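 Mice bearing the transplanted tumor received compound or vehicle. Survival of the treated group was divided by that of the vehicle-treated control group to give the ratio.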

Measured: T/C

C[C@]12C=CC(=O)C=C1CC[C@@H]1[C@@H]2C(=O)C[C@@]2(C)[C@H]1CC[C@]2(O)C(=O)CO
inactive: endpoint: mean survival time, dose: 0.25 mg/kg/injection, schedule: Q01DX009 (ip), vehicle: water 99 % of control | endpoint: mean survival time, dose: 0.5 mg/kg/injection, schedule: Q01DX009 (ip), vehicle: water 103 % of control | endpoint: mean survival time, dose: 1.0 mg/kg/injection, schedule: Q01DX009 (ip), vehicle: water 96 % of control and 97 % of control | endpoint: mean survival time, dose: 2.0 mg/kg/injection, schedule: Q01DX009 (ip), vehicle: water 99 % of control and 101 % of control | endpoint: mean survival time, dose: 2.5 mg/kg/injection, schedule: Q01DX009 (ip), vehicle: water 101 % of control | endpoint: mean survival time, dose: 5.0 mg/kg/injection, schedule: Q01DX009 (ip), vehicle: water 104 % of control | endpoint: mean survival time, dose: 6.25 mg/kg/injection, schedule: Q01DX014 (sc), vehicle: steriod suspending solution 103 % of control and 104 % of control | endpoint: mean survival time, dose: 12.5 mg/kg/injection, schedule: Q01DX014 (sc), vehicle: steriod suspending solution 100 % of control and 109 % of control | endpoint: mean survival time, dose: 25.0 mg/kg/injection, schedule: Q01DX014 (sc), vehicle: steriod suspending solution 103 % of control and 105 % of control | endpoint: mean survival time, dose: 25.0 mg/kg/injection, schedule: Q01DX Z (sc), vehicle: steriod suspending solution 97 % of control and 102 % of control and 108 % of control | endpoint: mean survival time, dose: 50.0 mg/kg/injection, schedule: Q01DX009 (ip), vehicle: saline with Tween-80 102 % of control | endpoint: mean survival time, dose: 50.0 mg/kg/injection, schedule: Q01DX Z (sc), vehicle: steriod suspending solution 100 % of control (2×) and 112 % of control | endpoint: mean survival time, dose: 100.0 mg/kg/injection, schedule: Q01DX009 (ip), vehicle: Klucel (hydroxypropylcellulose) (HPC) 107 % of control | endpoint: mean survival time, dose: 100.0 mg/kg/injection, schedule: Q01DX009 (ip), vehicle: saline with Tween-80 97 % of control | endpoint: mean survival time, dose: 100.0 mg/kg/injection, schedule: Q01DX009 (ip), vehicle: saline 100 % of control | endpoint: mean survival time, dose: 100.0 mg/kg/injection, schedule: Q01DX009 (ip), vehicle: steriod suspending solution 104 % of control | endpoint: mean survival time, dose: 100.0 mg/kg/injection, schedule: Q01DX009 (sc), vehicle: Klucel (hydroxypropylcellulose) (HPC) 91 % of control | endpoint: mean survival time, dose: 100.0 mg/kg/injection, schedule: Q01DX009 (sc), vehicle: saline 97 % of control | endpoint: mean survival time, dose: 100.0 mg/kg/injection, schedule: Q01DX009 (sc), vehicle: steriod suspending solution 100 % of control | endpoint: mean survival time, dose: 100.0 mg/kg/injection, schedule: Q01DX Z (sc), vehicle: steriod suspending solution 98 % of control and 101 % of control | endpoint: mean survival time, dose: 100.0 mg/kg/injection, schedule: Q04DX003 (ip), vehicle: saline with Tween-80 106 % of control | endpoint: mean survival time, dose: 120.0 mg/kg/injection, schedule: Q01DX001 (sc), vehicle: steriod suspending solution 106 % of control | endpoint: mean survival time, dose: 180.0 mg/kg/injection, schedule: Q01DX001 (sc), vehicle: steriod suspending solution 107 % of control | endpoint: mean survival time, dose: 200.0 mg/kg/injection, schedule: Q01DX009 (ip), vehicle: Klucel (hydroxypropylcellulose) (HPC) 100 % of control | endpoint: mean survival time, dose: 200.0 mg/kg/injection, schedule: Q01DX009 (ip), vehicle: saline with Tween-80 102 % of control | endpoint: mean survival time, dose: 200.0 mg/kg/injection, schedule: Q01DX009 (ip), vehicle: saline 104 % of control | endpoint: mean survival time, dose: 200.0 mg/kg/injection, schedule: Q01DX009 (ip), vehicle: steriod suspending solution 104 % of control | endpoint: mean survival time, dose: 200.0 mg/kg/injection, schedule: Q01DX009 (sc), vehicle: Klucel (hydroxypropylcellulose) (HPC) 110 % of control | endpoint: mean survival time, dose: 200.0 mg/kg/injection, schedule: Q01DX009 (sc), vehicle: saline 105 % of control | endpoint: mean survival time, dose: 200.0 mg/kg/injection, schedule: Q01DX009 (sc), vehicle: steriod suspending solution 102 % of control | endpoint: mean survival time, dose: 200.0 mg/kg/injection, schedule: Q01DX Z (sc), vehicle: steriod suspending solution 94 % of control and 96 % of control | endpoint: mean survival time, dose: 200.0 mg/kg/injection, schedule: Q04DX003 (ip), vehicle: saline with Tween-80 98 % of control | endpoint: mean survival time, dose: 240.0 mg/kg/injection, schedule: Q01DX001 (sc), vehicle: steriod suspending solution 104 % of control | endpoint: mean survival time, dose: 400.0 mg/kg/injection, schedule: Q01DX009 (ip), vehicle: Klucel (hydroxypropylcellulose) (HPC) 100 % of control | endpoint: mean survival time, dose: 400.0 mg/kg/injection, schedule: Q01DX009 (ip), vehicle: saline 101 % of control | endpoint: mean survival time, dose: 400.0 mg/kg/injection, schedule: Q01DX009 (ip), vehicle: steriod suspending solution 89 % of control | endpoint: mean survival time, dose: 400.0 mg/kg/injection, schedule: Q01DX009 (sc), vehicle: Klucel (hydroxypropylcellulose) (HPC) 97 % of control | endpoint: mean survival time, dose: 400.0 mg/kg/injection, schedule: Q01DX009 (sc), vehicle: saline 109 % of control | endpoint: mean survival time, dose: 400.0 mg/kg/injection, schedule: Q01DX009 (sc), vehicle: steriod suspending solution 96 % of control | endpoint: mean survival time, dose: 400.0 mg/kg/injection, schedule: Q01DX Z (sc), vehicle: steriod suspending solution 100 % of control | endpoint: mean survival time, dose: 400.0 mg/kg/injection, schedule: Q04DX003 (ip), vehicle: saline with Tween-80 104 % of control | endpoint: mean survival time, dose: 500.0 mg/kg/injection, schedule: Q01DX001 (ip), vehicle: water 98 % of control and 103 % of control | endpoint: mean survival time, dose: 800.0 mg/kg/injection, schedule: Q01DX009 (ip), vehicle: Klucel (hydroxypropylcellulose) (HPC) 105 % of control | endpoint: mean survival time, dose: 800.0 mg/kg/injection, schedule: Q01DX009 (ip), vehicle: saline 110 % of control | endpoint: mean survival time, dose: 800.0 mg/kg/injection, schedule: Q01DX009 (ip), vehicle: steriod suspending solution 95 % of control | endpoint: mean survival time, dose: 800.0 mg/kg/injection, schedule: Q01DX009 (sc), vehicle: Klucel (hydroxypropylcellulose) (HPC) 103 % of control | endpoint: mean survival time, dose: 800.0 mg/kg/injection, schedule: Q01DX009 (sc), vehicle: saline 104 % of control | endpoint: mean survival time, dose: 800.0 mg/kg/injection, schedule: Q01DX009 (sc), vehicle: steriod suspending solution 102 % of control | endpoint: mean survival time, dose: 1000.0 mg/kg/injection, schedule: Q01DX001 (ip), vehicle: water 97 % of control and 102 % of control | endpoint: mean survival time, dose: 2000.0 mg/kg/injection, schedule: Q01DX001 (ip), vehicle: water 96 % of control and 109 % of control | endpoint: median survival time, dose: 25.0 mg/kg/injection, schedule: Q01DX009 (ip), vehicle: water 100 % of control and 90 % of control | endpoint: median survival time, dose: 50.0 mg/kg/injection, schedule: Q01DX009 (ip), vehicle: water 95 % of control and 100 % of control | endpoint: median survival time, dose: 100.0 mg/kg/injection, schedule: Q01DX009 (ip), vehicle: water 95 % of control and 100 % of control | endpoint: median survival time, dose: 108.0 mg/kg/injection, schedule: Q01DX009 (ip), vehicle: water 100 % of control and 90 % of control | endpoint: median survival time, dose: 180.0 mg/kg/injection, schedule: Q01DX009 (ip), vehicle: water 95 % of control and 90 % of control | endpoint: median survival time, dose: 200.0 mg/kg/injection, schedule: Q01DX009 (ip), vehicle: water 95 % of control and 100 % of control | endpoint: median survival time, dose: 300.0 mg/kg/injection, schedule: Q01DX009 (ip), vehicle: water 100 % of control | endpoint: median survival time, dose: 375.0 mg/kg/injection, schedule: Q01DX001 (ip), vehicle: water 100 % of control | endpoint: median survival time, dose: 400.0 mg/kg/injection, schedule: Q01DX009 (ip), vehicle: water 95 % of control and 110 % of control | endpoint: median survival time, dose: 400.0 mg/kg/injection, schedule: Q04DX003 (ip), vehicle: saline 111 % of control | endpoint: median survival time, dose: 500.0 mg/kg/injection, schedule: Q01DX009 (ip), vehicle: water 90 % of control | endpoint: median survival time, dose: 600.0 mg/kg/injection, schedule: Q04DX003 (ip), vehicle: saline 104 % of control | endpoint: median survival time, dose: 750.0 mg/kg/injection, schedule: Q01DX001 (ip), vehicle: water 100 % of control | endpoint: median survival time, dose: 800.0 mg/kg/injection, schedule: Q01DX009 (ip), vehicle: water 100 % of control | endpoint: median survival time, dose: 833.0 mg/kg/injection, schedule: Q01DX009 (ip), vehicle: water 90 % of control | endpoint: median survival time, dose: 1388.0 mg/kg/injection, schedule: Q01DX009 (ip), vehicle: water 90 % of control | endpoint: median survival time, dose: 1500.0 mg/kg/injection, schedule: Q01DX001 (ip), vehicle: water 100 % of control | endpoint: median survival time, dose: 3000.0 mg/kg/injection, schedule: Q01DX001 (ip), vehicle: water 100 % of control and 102 % of control

O=C(O)C(Br)C(Br)C(=O)O.[Ag] (stereo not drawn)
inactive: endpoint: mean survival time, dose: 9.38 mg/kg/injection, schedule: Q01DX001 (ip), vehicle: other 94 % of control | endpoint: mean survival time, dose: 18.75 mg/kg/injection, schedule: Q01DX001 (ip), vehicle: other 94 % of control

CCCCCCCCCCCCC(=O)O
inactive: endpoint: mean survival time, dose: 100.0 mg/kg/injection, schedule: Q04DX002 (ip), vehicle: saline with Tween-80 98 % of control | endpoint: mean survival time, dose: 200.0 mg/kg/injection, schedule: Q04DX002 (ip), vehicle: saline with Tween-80 98 % of control | endpoint: mean survival time, dose: 400.0 mg/kg/injection, schedule: Q04DX002 (ip), vehicle: saline with Tween-80 105 % of control
